Laboratory results as given in paper PMC3813957 (Cancer prevention research (Philadelphia, Pa.), 2013).
Where two headings read alike, the source gives them in different places.

Tests used:
[1] = cited from earlier work
[2] = system: transgenic model of ER negative breast cancer; conditions: ref Lubet and Grubbs, unpublished data; cited from earlier work
brain metastases = conditions: nine patients, median dose 1500 mg weekly; cited from earlier work
[3] = human, 150 mg, steady state; cited from earlier work
[4] = system: methylnitrosourea-induced mammary cancers; assay: Prevention of methylnitrosourea-induced mammary carcinogenesis; assay type: in vivo, female Sprague-Dawley rats; conditions: for reduction of final tumor multiplicity: 6 mg/kg BW
[5] = system: phosphorylated ERKs (T202/Y204); assay: Biomarker study: Western blot of phosphorylated ERK in mammary cancers; assay type: in vivo, female Sprague-Dawley rats
[6] = system: established mammary cancers induced by methylnitrosourea; assay: Therapy of established; assay type: in vivo, female Sprague-Dawley rats; conditions: for reduction of average tumor size: vehicle group increased 250%
[7] = Serum pharmacokinetics of erlotinib and OSI-420 after gavage; conditions: for concentration at 2 h / concentration at 4 h / concentration at 8 h / concentration at 24 h / concentration at 48 h / half-life / AUC(0-t) / Cmax / Tmax: female, Sprague-Dawley, rat, serum
[8] = system: carcinogen-induced urinary bladder model; conditions: ref Lubet and Grubbs, unpublished data; cited from earlier work
[9] = system: MNU-induced rat mammary cancers; conditions: varied doses; cited from earlier work
[10] = Experiment C, weekly dosing at either 42 or 21 mg/kg BW
[11] = rat 42 mg/kg BW vs human 150 mg
[12] = rat effective daily dose (6 mg/kg BW) vs human

C#Cc1cccc(Nc2ncnc3cc(OCCOC)c(OCCOC)cc23)c1 [Erlotinib]
patients with moderate (grade 2) rash ([1]; 2000 mg/week): 42% | severe (grade 3) rash or diarrhea ([1]; weekly dosing, doses up to 2000 mg/week, any dose level): no severe (grade 3) rash or diarrhea | efficacy of weekly treatment [2]: strong efficacy | efficacy (brain metastases): significant efficacy was observed | AUC0–24 [3]: 26500 ng·h/mL | Cmax [3]: 1740 ng/mL | Tmax [3]: 2.44 h | tumor incidence and latency ([4]; Experiment A, 6 mg/kg BW daily, one day on/one day off, or two days on/two days off, all three regimens vs controls P<.01): reductions of tumor incidence and increases in latency | reduction of final tumor multiplicity ([4]; Experiment A, 2 days on/2 days off, vs vehicle controls P<.001): 75% | reduction of final tumor multiplicity ([4]; Experiment A, intermittent dosing (both schedules)): 65–75% | tumor incidence and latency ([4]; Experiment B, 6 mg/kg BW daily, 6 mg/kg BW two days on/two days off, or 42 mg/kg BW weekly, all three vs controls P<.01): reduced tumor incidence and increased tumor latency | reduction of tumor multiplicity ([4]; Experiment B, 6 mg/kg BW daily, vs controls P<.005): 85% | tumor incidence [4, 10]: strongly inhibited | tumor multiplicity [4, 10]: strongly inhibited | preventive activity (tumor incidence and multiplicity) ([4]; initial studies, 6 mg/Kg BW/day, data not shown): highly effective | tumor incidence and multiplicity ([4]; initial studies, various daily doses up to 6 mg/kg BW/day): dose dependent decrease | decrease of tumor multiplicity ([4]; lower weekly dose 21 mg/kg BW): approximately 85% | phosphorylation of ERK in cancers (Western blot) ([5]; 6 mg/kg BW/day daily for 7 days): striking decrease | levels of phosphorylated ERK ([5]; rats treated daily/weekly (abstract)): strongly decreased | phosphorylated ERK in cancers (Western blot) ([5]; single weekly dose 42 mg/kg BW, examined 6 days following the treatment): strong decrease | reduction of average tumor size ([6]; 6 mg/kg BW daily for 6 weeks): 40% | reduction of average tumor size ([6]; 42 mg/kg BW weekly for 6 weeks): 25% | share of mammary tumors that decreased by 60% in size ([6]; either daily (6 mg/kg BW) or weekly (42 mg/kg BW) dosing, 6 weeks): at least 50% | concentration at 2 h ([7]; oral, 6 mg/kg BW/day): 708 ± 48 ng/mL | concentration at 4 h ([7]; oral, 6 mg/kg BW/day): 427 ± 19 ng/mL | concentration at 8 h ([7]; oral, 6 mg/kg BW/day): 277 ± 102 ng/mL | concentration at 24 h ([7]; oral, 6 mg/kg BW/day): 25 ± 9 ng/mL | concentration at 48 h ([7]; oral, 6 mg/kg BW/day): 0 ng/mL | half-life ([7]; oral, 6 mg/kg BW/day, half-life, daily erlotinib (discussion)): 5 to 6 h | concentration at 2 h ([7]; oral, 42 mg/kg BW): 1350 ± 96 ng/mL | concentration at 4 h ([7]; oral, 42 mg/kg BW): 1060 ± 184 ng/mL | concentration at 8 h ([7]; oral, 42 mg/kg BW): 1590 ± 259 ng/mL | concentration at 24 h ([7]; oral, 42 mg/kg BW): 470 ± 121 ng/mL | concentration at 48 h ([7]; oral, 42 mg/kg BW): 52 ± 11 ng/mL | half-life ([7]; oral, serum half-life): ≤ 8 h | AUC(0-t) ([7]; po, 6 mg/kg): 4680 ng·h/mL | Cmax ([7]; po, 6 mg/kg): 708 ng/mL | Tmax ([7]; po, 6 mg/kg): 2 h | half-life ([7]; po, 6 mg/kg, T1/2, rat, non-compartmental): 4.61 h | AUC(0-t) ([7]; po, 42 mg/kg): 28400 ng·h/mL | Cmax ([7]; po, 42 mg/kg): 1590 ng/mL | Tmax ([7]; po, 42 mg/kg): 8 h | half-life ([7]; po, 42 mg/kg, T1/2, rat, non-compartmental): 8.06 h | AUC relative to the human dose ([7]; rat 6 mg/Kg BW vs human 150 mg): < 20% | Cmax relative to human levels ([7]; rat 6 mg/Kg BW vs human 150 mg): < 50% | AUC compared with the human [7, 11]: similar | Cmax compared with that achieved in humans [7, 11]: similar | AUC less than in the human [7, 12]: 5 × | Cmax lower than in the human [7, 12]: approximately 60% | efficacy of weekly treatment [8]: strong efficacy

COc1cc2ncnc(Nc3ccc(F)c(Cl)c3)c2cc1OCCCN1CCOCC1 [gefitinib]
tumor multiplicity [9]: dose dependent decrease
